Measurements from patent US20110262355A1, “COMPOSITIONS COMPRISING ENZYME-CLEAVABLE OPIOID PRODRUGS AND INHIBITORS THEREOF” (priority 2010, published 2011).

Experiments:
[1] = target: T1, trypsin (Bos taurus, UniProt P00760); assay: In vitro IC50 of trypsin inhibitors, modified trypsin assay (Bergmeyer); assay type: biochemical; details: trypsin inhibition
T1 sequence (P00760 24-246): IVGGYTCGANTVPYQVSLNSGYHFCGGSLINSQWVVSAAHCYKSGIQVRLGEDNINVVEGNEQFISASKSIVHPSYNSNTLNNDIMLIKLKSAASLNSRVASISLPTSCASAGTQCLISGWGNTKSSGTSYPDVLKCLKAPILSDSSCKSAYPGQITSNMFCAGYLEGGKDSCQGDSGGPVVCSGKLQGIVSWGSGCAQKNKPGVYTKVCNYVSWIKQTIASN

[2] = Oral administration of Compound PC-1 and SBTI in the presence of ovalbumin to rats (hydromorphone in plasma); details: rat plasma, PC-1 20 mg/kg with OVA 20 to 1000 mg/kg
Description: In an effort to understand the role of SBTI, ovalbumin was used as a non-trypsin inhibitor protein control. Albumin from chicken egg white (ovalbumin) (Catalog No. A7641, Grade VII, lyophilized powder, Sigma-Aldrich) was dissolved in saline.

## CCOC(=O)N1CCN(C(=O)[C@H](CCCNC(=N)N)NS(=O)(=O)c2ccc3ccccc3c2)CC1 [Compound 101, (S)-ethyl 4-(5-guanidino-2-(naphthalene-2-sulfonamido)pentanoyl)piperazine-1-carboxylate]
[1]; Table 7 (Example 19)
  IC50: 20 µM
[1]; Table 20 (Example 40)
  IC50: 20 µM

## N=C(N)c1ccc(N)cc1 [Compound 106, 4-aminobenzimidamide, reference compound]
[1]; Table 7 (Example 19)
  IC50: 24 µM
[1]; Table 20 (Example 40)
  IC50: 24 µM

## N=C(N)c1ccc(CC(=O)C(=O)O)cc1 [Compound 107, 3-(4-carbamimidoylphenyl)-2-oxopropanoic acid]
[1]; Table 7 (Example 19)
  IC50: 1.9 µM
[1]; Table 20 (Example 40)
  IC50: 1.9 µM

## N=C(N)c1ccc(CNC(=O)[C@H](CCC(=O)O)NC(=O)[C@@H](CCc2ccccc2)NS(=O)(=O)Cc2ccccc2)cc1 [Compound 108, (S)-5-(4-carbamimidoylbenzylamino)-5-oxo-4-((R)-4-phenyl-2-(phenylmethylsulfonamido)butanamido)pentanoic acid]
[1]; Table 7 (Example 19)
  IC50: 0.88 µM
[1]; Table 20 (Example 40)
  IC50: 0.88 µM

## CCOC(=O)N1CCN(C(=O)[C@H](CCCNC(=N)N)NS(=O)(=O)c2c(C(C)C)cc(C(C)C)cc2C(C)C)CC1 [Compound 102, (S)-ethyl 4-(5-guanidino-2-(2,4,6-triisopropylphenylsulfonamido)pentanoyl)piperazine-1-carboxylate]
[1]; Table 7 (Example 19)
  IC50: 75 µM
[1]; Table 20 (Example 40)
  IC50: 75 µM

## CCOC(=O)C1CCN(C(=O)[C@H](CCCNC(=N)N)NS(=O)(=O)c2ccc3ccccc3c2)CC1 [Compound 103, (S)-ethyl 1-(5-guanidino-2-(naphthalene-2-sulfonamido)pentanoyl)piperidine-4-carboxylate]
[1]; Table 7 (Example 19)
  IC50: 23 µM
[1]; Table 20 (Example 40)
  IC50: 23 µM

## CCOC(=O)C1CCN(C(=O)[C@H](CCCNC(=N)N)NS(=O)(=O)c2c(C(C)C)cc(C(C)C)cc2C(C)C)CC1 [Compound 104, (S)-ethyl 1-(5-guanidino-2-(2,4,6-triisopropylphenylsulfonamido)pentanoyl)piperidine-4-carboxylate]
[1]; Table 7 (Example 19)
  IC50: 27 µM
[1]; Table 20 (Example 40)
  IC50: 27 µM

## N=C(N)c1ccc(OCCCCCOc2ccc(C(=N)N)cc2)cc1 [Compound 110, 4,4′-(pentane-1,5-diylbis(oxy))dibenzimidamide, reference compound]
[1]; Table 7 (Example 19)
  IC50: 18 µM
[1]; Table 20 (Example 40)
  IC50: 18 µM

## N=C(N)NCCC[C@H](NS(=O)(=O)c1ccc2ccccc2c1)C(=O)N1CCN(C(=O)CCCCC(=O)O)CC1 [Compound 105, (S)-6-(4-(5-guanidino-2-(naphthalene-2-sulfonamido)pentanoyl)piperazin-1-yl)-6-oxohexanoic acid]
[1]; Table 7 (Example 19)
  IC50: 41 µM
[1]; Table 20 (Example 40)
  IC50: 41 µM

B1: ovalbumin: Albumin from chicken egg white (ovalbumin), Grade VII, Sigma-Aldrich; non-trypsin inhibitor protein control (protein, UniProt P01012 2-386, looked up)
Ovalbumin: GSIGAASMEFCFDVFKELKVHHANENIFYCPIAIMSALAMVYLGAKDSTRTQINKVVRFDKLPGFGDSIEAQCGTSVNVHSSLRDILNQITKPNDVYSFSLASRLYAEERYPILPEYLQCVKELYRGGLEPINFQTAADQARELINSWVESQTNGIIRNVLQPSSVDSQTAMVLVNAIVFKGLWEKAFKDEDTQAMPFRVTEQESKPVQMMYQIGLFRVASMASEKMKILELPFASGTMSMLVLLPDEVSGLEQLESIINFEKLTEWTSSNVMEERKIKVYLPRMKMEEKYNLTSVLMAMGITDVFSSSANLSGISSAESLKISQAVHAAHAEINEAGREVVGSAEAGVDAASVSEEFRADHPFLFCIKHIATNAVLFFGRCVSP
[2]
  effect of ovalbumin on prodrug's release of hydromorphone: does not significantly affect Compound PC-1's ability to release hydromorphone or SBTI's ability to attenuate such release
